Structures are written as SMILES. pIC50: −log10 of the molar value. Read-outs that look alike come from different tables or passages of the source. Some results are limits rather than exact numbers.

For experiment [1], the target named is T1, GST-RIPK2 fusion protein (human RIPK2, amino acids 1-310) (Homo sapiens, UniProt O43353).
T1 construct: made in house; host or cells: baculovirus infected Sf9 cells
In words: RIPK2 binding competition assay (TR-FRET, Tracer 199 displacement). As to conditions: 10 nM Tracer 199, 1 nM GST-RIPK2, read-out: RIPK2 IC50. Summed up:
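GST-RIPK2 (human aa 1-310, Sf9-expressed; final 1 nM) with Tracer 199 (final 10 nM) and Tb-anti-GST (final 0.5 nM) in Tris pH 7.5 buffer, 45 min at 22 °C. TR-FRET 665/620 nm ratio after 337 nm excitation; normalized to no-inhibitor (0%) and no-protein (−100%), giving IC50.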
(In general: In TR-FRET formats the signal depends on donor and acceptor labels being close together.)

Experiment [2] concerns the target T2, binding of His-XIAP(BIR2)-avi fusion protein to GST-RIPK2 fusion protein (RIPK2/XIAP) (Homo sapiens, UniProt O43353).
T2 construct: made in house; host or cells: baculovirus infected Sf9 cells
The experiment can be described thus: RIPK2-XIAP binding competition PPI assay (TR-FRET). The note with it: for Emax: read-out: PPI Amax bin; for pIC50: read-out: PPI IC50 bin. A digest of the protocol: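 Compounds (in DMSO, 100-fold stock) incubated 120 min at 23 °C with 1 nM GST-RIPK2 (aa 1-310) and 25 nM His-XIAP(BIR2 aa 152-231)-avi, plus anti-His-XL665 and anti-GST-Tb, in pH 7.5 Tris buffer. Read-out: 665/520 nm emission ratio. Normalized to no-inhibitor (0%) and 50 nM GSK583 (−100%); Amax binned A–D.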

The test system of experiment [3] is NF-κB pathway (SEAP) in THP1-Dual cells. In words: THP-1 Dual cell SEAP assay (L18-MDP stimulated). The experiment is classed as cell-based. The note with it: Homo sapiens, THP1-Dual, read-out: NF-κB THP1 IC50 bin. A digest of the protocol: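 THP1-Dual cells (~25,000/well) were preincubated 30 min with serially diluted compounds, then stimulated with 10 ng/mL L18-MDP (final) for 20-24 h at 37 °C. Supernatant SEAP was read with QUANTI-Blue at OD 620-655 nm after 2 h. IC50 came from non-linear fits of % inhibition versus DMSO/L18-MDP controls after media-blank subtraction.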

Setting [4] is: RIPK2/XIAP binding competition PPI assay, Amax.
The mark [5] stands for this setting: RIPK2/XIAP binding competition PPI assay.

T2 sequence (O43353 1-310 limits assumed): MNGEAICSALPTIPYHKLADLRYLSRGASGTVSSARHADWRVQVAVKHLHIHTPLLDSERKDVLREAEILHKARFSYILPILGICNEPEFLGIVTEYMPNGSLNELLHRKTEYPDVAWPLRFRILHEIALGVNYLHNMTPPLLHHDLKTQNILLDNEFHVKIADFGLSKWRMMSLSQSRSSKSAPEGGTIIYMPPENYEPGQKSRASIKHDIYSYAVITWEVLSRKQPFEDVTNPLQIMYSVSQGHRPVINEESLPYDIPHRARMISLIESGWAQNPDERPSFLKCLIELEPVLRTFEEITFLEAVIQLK
T1 sequence (O43353 1-310): as the sequence (O43353 1-310 limits assumed) above

The pIC50 is the negative decadic logarithm of the IC50, by convention in mol/L. `COc1cc2ncc(-c3cc(F)c(OC)c4[nH]c(CO)nc34)n2cc1S(=O)(=O)C(C)(C)C` [Example 119, (4-(6-(tert-butylsulfonyl)-7-methoxyimidazo[1,2-a]pyridin-3-yl)-6-fluoro-7-methoxy-1H-benzo[d]imidazol-2-yl)methanol]: the pIC50 is more than 9.00 in experiment [1], more than 9.00 in experiment [2] (setting [5]) and more than 7.30 in experiment [3]. Further, the Emax in experiment [2] (setting [4]) fell in the range of 55 to 80%.

For the molecule `COc1cc2ncc(-c3cc(F)c(N)nc3F)n2cc1S(=O)(=O)c1cn[nH]c1` [Example 78, 5-(6-((1H-pyrazol-4-yl)sulfonyl)-7-methoxyimidazo[1,2-a]pyridin-3-yl)-3,6-difluoropyridin-2-amine], the pIC50 in experiment [1] is 7.70 to 8.60; in experiment [2] (setting [5]), 7.70 to 8.60; in experiment [3], less than 6.00. Moreover, the Emax in experiment [2] (setting [4]) was more than 80%.

Regarding `COc1cc2ncc(-c3ccc4sc(N)nc4c3)n2cc1S(=O)(=O)C(C)(C)C` [Example 105, 5-(6-(tert-butylsulfonyl)-7-methoxyimidazo[1,2-a]pyridin-3-yl)benzo[d]thiazol-2-amine], the figures for the pIC50 in experiment [1], in experiment [2] (setting [5]) and in experiment [3] were less than 7.70, less than 7.70 and less than 6.00, respectively. Also, in experiment [2] (setting [4]), the Emax lay within 30 to 55%.

On to `COc1cc2ncc(-c3cc(F)c(N)nc3F)n2cc1S(=O)(=O)C1(C)CCNCC1` [Example 71, 3,6-difluoro-5-(7-methoxy-6-((4-methylpiperidin-4-yl)sulfonyl)imidazo[1,2-a]pyridin-3-yl)pyridin-2-amine], for which the pIC50 was 7.70 to 8.60 in experiment [1], 7.70 to 8.60 in experiment [2] (setting [5]) and less than 6.00 in experiment [3]. Also, the Emax in experiment [2] (setting [4]) was more than 80%.

`COc1cc2ncc(-c3ccc4nn(C)cc4c3)n2cc1S(=O)(=O)C(C)(C)C` [Example 111, 5-(6-(tert-butylsulfonyl)-7-methoxyimidazo[1,2-a]pyridin-3-yl)-2-methyl-2H-indazole]: the negative logarithm of the IC50 (pIC50) is less than 7.70 in experiment [1], less than 7.70 in experiment [2] (setting [5]) and less than 6.00 in experiment [3]. Further, in experiment [2] (setting [4]), the Emax is less than 30%.

In the case of `CC(C)(C)S(=O)(=O)c1cc2c(-c3cc(Cl)c(N)nc3F)cnn2cc1OCC(O)CO` (stereo not drawn) [Example 247, 3-((3-(6-amino-5-chloro-2-fluoropyridin-3-yl)-5-(tert-butylsulfonyl)pyrazolo [1,5-a]pyridin-6-yl)oxy)propane-1,2-diol], the values for the negative logarithm of the IC50 (pIC50) in experiment [1], in experiment [2] (setting [5]) and in experiment [3] were 8.60 to 9.00, 8.60 to 9.00 and 6.60 to 7.30, respectively. The Emax in experiment [2] (setting [4]) was more than 80%.

As for `COc1cc2ncc(-c3ccc4nc(N)oc4c3)n2cc1S(=O)(=O)C(C)(C)C` [Example 96, 6-(6-(tert-butylsulfonyl)-7-methoxyimidazo[1,2-a]pyridin-3-yl)benzo[d]oxazol-2-amine], the pIC50 in experiment [1] was 7.70 to 8.60; in experiment [2] (setting [5]), less than 7.70; in experiment [3], 6.00 to 6.60. The Emax in experiment [2] (setting [4]) is less than 30%.

In the case of `COc1cc2ncc(-c3cc(F)c(N)nc3F)n2cc1S(=O)(=O)C(C)(C)CCO` [Example 62, 3-((3-(6-amino-2,5-difluoropyridin-3-yl)-7-methoxyimidazo[1,2-a]pyridin-6-yl)sulfonyl)-3-methylbutan-1-ol], the pIC50 in experiment [1] is 7.70 to 8.60; in experiment [2] (setting [5]), 7.70 to 8.60; in experiment [3], 6.00 to 6.60. Further, the Emax in experiment [2] (setting [4]) was more than 80%.

In the case of `COc1cc2ncc(-c3cccc(NS(=O)(=O)C4COC4)c3)n2cc1S(=O)(=O)C(C)(C)C` [Example 150, N-(3-(6-(tert-butylsulfonyl)-7-methoxyimidazo[1,2-a]pyridin-3-yl)phenyl)oxetane-3-sulfonamide], the pIC50 in experiment [1] was 7.70 to 8.60; in experiment [2] (setting [5]) it was 7.70 to 8.60; in experiment [3], less than 6.00. For the same molecule, in experiment [2] (setting [4]), the Emax is more than 80%.

Regarding `COc1cc2ncc(-c3ccc4ncoc4c3)n2cc1S(=O)(=O)C(C)(C)C` [Example 110, 6-(6-(tert-butylsulfonyl)-7-methoxyimidazo[1,2-a]pyridin-3-yl)benzo[d]oxazole], the negative-log IC50 (pIC50) is less than 7.70 in experiment [1], less than 7.70 in experiment [2] (setting [5]) and less than 6.00 in experiment [3]. The Emax in experiment [2] (setting [4]) was less than 30%.

`COc1cc2ncc(-c3cc(F)c(OC)c(NS(=O)(=O)c4cnn(CCO)c4)c3)n2cc1S(=O)(=O)C(C)(C)C` [Example 227, N-(5-(6-(tert-butylsulfonyl)-7-methoxyimidazo[1,2-a]pyridin-3-yl)-3-fluoro-2-methoxyphenyl)-1-(2-hydroxyethyl)-1H-pyrazole-4-sulfonamide]: the pIC50 in experiment [1] is 8.60 to 9.00; in experiment [2] (setting [5]), more than 9.00; in experiment [3], more than 7.30. For the same molecule, the Emax in experiment [2] (setting [4]) is more than 80%.

In the case of `COc1cc2ncc(-c3cnc4c(c3)CC(=O)N4)n2cc1S(=O)(=O)C(C)(C)C` [Example 83, 5-(6-(tert-butylsulfonyl)-7-methoxyimidazo[1,2-a]pyridin-3-yl)-1,3-dihydro-2H-pyrrolo[2,3-b]pyridin-2-one], the pIC50 in experiment [1] is less than 7.70; in experiment [2] (setting [5]), less than 7.70; in experiment [3] it was less than 6.00. Moreover, in experiment [2] (setting [4]), the Emax was less than 30%.

As for `COc1cn2ncc(-c3cc(F)c(OC)c(NS(=O)(=O)c4cnn(C)c4)c3)c2nc1OC` [Example 211, N-(5-(5,6-dimethoxypyrazolo[1,5-a]pyrimidin-3-yl)-3-fluoro-2-methoxyphenyl)-1-methyl-1H-pyrazole-4-sulfonamide], the pIC50 in experiment [1] is 7.70 to 8.60; in experiment [2] (setting [5]), 7.70 to 8.60; in experiment [3], less than 6.00. Also, in experiment [2] (setting [4]), the Emax is more than 80%.

For the molecule `CCC(C)(C)S(=O)(=O)c1cn2c(-c3cc(F)c(N)nc3F)cnc2cc1OC` [Example 69, 3,6-difluoro-5-(7-methoxy-6-(tert-pentylsulfonyl)imidazo[1,2-a]pyridin-3-yl)pyridin-2-amine], the pIC50 is 7.70 to 8.60 in experiment [1], 7.70 to 8.60 in experiment [2] (setting [5]) and 6.00 to 6.60 in experiment [3]. The Emax in experiment [2] (setting [4]) was more than 80%.

For `COc1cc2ncc(-c3cc(F)c(N)nc3F)n2cc1S(=O)(=O)C1(C)CCOCC1` [Example 72, 3,6-difluoro-5-(7-methoxy-6-((4-methyltetrahydro-2H-pyran-4-yl)sulfonyl)imidazo[1,2-a]pyridin-3-yl)pyridin-2-amine], the pIC50 in experiment [1] is less than 7.70; in experiment [2] (setting [5]), less than 7.70; in experiment [3], less than 6.00. Further, in experiment [2] (setting [4]), the Emax was more than 80%.

For the molecule `COc1c(F)cc(-c2cnc3cc(OC[C@@H](C)O)c(S(=O)(=O)C(C)(C)C)cn23)cc1NS(=O)(=O)c1cnn(C)c1` [Example 253, (R)-N-(5-(6-(tert-butylsulfonyl)-7-(2-hydroxypropoxy)imidazo [1,2-a]pyridin-3-yl)-3-fluoro-2-methoxyphenyl)-1-methyl-1H-pyrazole-4-sulfonamide], the pIC50 in experiment [1] is 8.60 to 9.00; in experiment [2] (setting [5]) it was more than 9.00; in experiment [3], more than 7.30. In addition, the Emax in experiment [2] (setting [4]) is more than 80%.

For the molecule `COc1cc2ncc(-c3cc(F)c(OC)c(NS(=O)(=O)CC(F)(F)F)c3)n2cc1S(=O)(=O)C(C)(C)C` [Example 143, N-(5-(6-(tert-butylsulfonyl)-7-methoxyimidazo[1,2-a]pyridin-3-yl)-3-fluoro-2-methoxyphenyl)-2,2,2-trifluoroethane-1-sulfonamide], the pIC50 is 8.60 to 9.00 in experiment [1], 8.60 to 9.00 in experiment [2] (setting [5]) and 6.00 to 6.60 in experiment [3]. The Emax in experiment [2] (setting [4]) lay in the range of 55 to 80%.

For the molecule `CC(C)(O)COc1cc2ncc(-c3cc(Cl)c(N)nc3F)n2cc1S(=O)(=O)C(C)(C)C` [Example 240, 1-((3-(6-amino-5-chloro-2-fluoropyridin-3-yl)-6-(tert-butylsulfonyl)imidazo [1,2-a]pyridin-7-yl)oxy)-2-methylpropan-2-ol], the pIC50 in experiment [1] is 8.60 to 9.00; in experiment [2] (setting [5]), 8.60 to 9.00; in experiment [3] it was 6.60 to 7.30. Also, the Emax in experiment [2] (setting [4]) was more than 80%.

In the case of `COc1cc2ncc(-c3ccn4nccc4c3)n2cc1S(=O)(=O)C(C)(C)C` [Example 94, 6-(tert-butylsulfonyl)-7-methoxy-3-(pyrazolo[1,5-a]pyridin-5-yl)imidazo[1,2-a]pyridine], the figures for the pIC50 in experiment [1], in experiment [2] (setting [5]) and in experiment [3] were 7.70 to 8.60, less than 7.70 and 6.00 to 6.60, respectively. Also, the Emax in experiment [2] (setting [4]) was less than 30%.

Regarding `COc1cc2ncc(-c3cc(F)c(N)nc3F)n2cc1S(=O)(=O)N(C)C` [Example 161, 3-(6-amino-2,5-difluoropyridin-3-yl)-7-methoxy-N,N-dimethylimidazo[1,2-a]pyridine-6-sulfonamide], the values for the pIC50 in experiment [1], in experiment [2] (setting [5]) and in experiment [3] were less than 7.70, less than 7.70 and less than 6.00, respectively. In addition, the Emax in experiment [2] is more than 80%.

With `COc1cc2ncc(-c3cc(F)c(N)nc3F)n2cc1C1(OC)CCOCC1` [Example 76, 3,6-difluoro-5-(7-methoxy-6-(4-methoxytetrahydro-2H-pyran-4-yl)imidazo[1,2-a]pyridin-3-yl)pyridin-2-amine], the pIC50 in experiment [1] was less than 7.70; in experiment [2] (setting [5]), less than 7.70; in experiment [3], less than 6.00. Moreover, the Emax in experiment [2] (setting [4]) was more than 80%.
